Assay results as given in US5721208A, “Glycopeptides a process for their preparation and their use” (Hoechst Aktiengesellschaft, priority 1991, dated 1998).

How the values were obtained:
Staph. aureus 285 = assay: Minimum bacteriostatic inhibitory concentration, Agar dilution method; type: cell-based
Bact. vulgatus 1446 = assay: as above; type: cell-based
Propioni acnes 6916 = assay: as above; type: cell-based
Bact. fragilis 960 = assay: as above; type: cell-based
Strept. pyogenes 308 A = assay: as above; type: cell-based
Staph. aureus 503 = assay: as above; type: cell-based
[1] = system: Clostridium tetani ATCC 1940650; settings: Agar dilution method
Bact. fragilis 1313 = assay: Minimum bacteriostatic inhibitory concentration, Agar dilution method; type: cell-based
Propioni acnes 6922 = assay: as above; type: cell-based
Bact. fragilis 312 = assay: as above; type: cell-based
Strept. pyogenes 77 A = assay: as above; type: cell-based
Escherichia coli DC 2 = assay: as above; type: cell-based
[2] = system: Clostridium perfringens 194; settings: Agar dilution method
Strept. faecium D = assay: Minimum bacteriostatic inhibitory concentration, Agar dilution method; type: cell-based
Staph. aureus SG 511 = assay: as above; type: cell-based
[3] = system: Peptostrept. anaerob. 932; assay: as above; type: cell-based

Molecule	Minimum bacteriostatic inhibitory concentration (Staph. aureus 285) [micrograms per milliliter]	Minimum bacteriostatic inhibitory concentration (Bact. vulgatus 1446) [micrograms per milliliter]	Minimum bacteriostatic inhibitory concentration (Propioni acnes 6916) [micrograms per milliliter]	Minimum bacteriostatic inhibitory concentration (Bact. fragilis 960) [micrograms per milliliter]	Minimum bacteriostatic inhibitory concentration (Strept. pyogenes 308 A) [micrograms per milliliter]	Minimum bacteriostatic inhibitory concentration (Staph. aureus 503) [micrograms per milliliter]	Minimum bacteriostatic inhibitory concentration [1] [micrograms per milliliter]	Minimum bacteriostatic inhibitory concentration (Bact. fragilis 1313) [micrograms per milliliter]	Minimum bacteriostatic inhibitory concentration (Propioni acnes 6922) [micrograms per milliliter]	Minimum bacteriostatic inhibitory concentration (Bact. fragilis 312) [micrograms per milliliter]	Minimum bacteriostatic inhibitory concentration (Strept. pyogenes 77 A) [micrograms per milliliter]	Minimum bacteriostatic inhibitory concentration (Escherichia coli DC 2) [micrograms per milliliter]	Minimum bacteriostatic inhibitory concentration [2] [micrograms per milliliter]	Minimum bacteriostatic inhibitory concentration (Strept. faecium D) [micrograms per milliliter]	Minimum bacteriostatic inhibitory concentration (Staph. aureus SG 511) [micrograms per milliliter]	Minimum bacteriostatic inhibitory concentration [3] [micrograms per milliliter]
CC1OC(OC2c3ccc(c(Cl)c3)Oc3cc4cc(c3OC3OC(CO)C(O)C(O)C3O)Oc3ccc(cc3Cl)C(O)C(N)C(=O)NC(CC(N)=O)C(=O)NC4C(=O)NC3C(=O)NC2C(=O)NC(C(=O)O)c2cc(O)cc(O)c2-c2cc3ccc2O)CC(C)(N)C1=O (centres unmarked) [Desmethylleucylbalhimycin, desmethylleucylbalhimycin]	6	100	6	50	12.5	6	50	100	6	50	3	> 100	6	6	3	50
CC(C)C[C@H](C(=O)N[C@H]1C(=O)NC(CC(N)=O)C(=O)N[C@H]2C(=O)N[C@H]3C(=O)N[C@H](C(=O)N[C@@H](C(=O)O)c4cc(O)cc(O)c4-c4cc3ccc4O)[C@H](O[C@H]3C[C@](C)(N)C(=O)[C@H](C)O3)c3ccc(c(Cl)c3)Oc3cc2cc(c3O[C@@H]2O[C@H](CO)[C@@H](O)[C@H](O)[C@H]2O)Oc2ccc(cc2Cl)[C@H]1O)N(C)C (some centres unmarked) [Methylbalhimycin, methylbalhimycin]	0.4	> 100	0.4	100	0.4	0.4	3.1	50	0.4	100	0.4	25	1.5	0.8	0.4	0.8
balhimycin R	0.8	> 100	6.2	> 100	0.2	0.2	100	> 100	3.1	> 100	0.2	50		0.4	0.2	100
CNC(CC(C)C)C(=O)NC1C(=O)NC(CC(N)=O)C(=O)NC2C(=O)NC3C(=O)NC(C(=O)NC(C(=O)O)c4cc(O)cc(O)c4-c4cc3ccc4O)C(OC3CC4(C)NC(=O)NC4(O)C(C)O3)c3ccc(c(Cl)c3)Oc3cc2cc(c3OC2OC(CO)C(O)C(O)C2O)Oc2ccc(cc2Cl)C1O (centres unmarked) [Ureidobalhimycin, ureidobalhimycin]	1.5	50	0.8	25	0.8	1.5	12.5	25	1.5	25	0.8	> 100	0.4	1.5	0.8	6.2
balhimycin V	0.4				0.05	0.1					0.05	> 100		0.2	0.4	
CC(C)CC(N)C(=O)NC1C(=O)NC(CC(N)=O)C(=O)NC2C(=O)NC3C(=O)NC(C(=O)NC(C(=O)O)c4cc(O)cc(O)c4-c4cc3ccc4O)C(OC3CC(C)(N)C(=O)C(C)O3)c3ccc(c(Cl)c3)Oc3cc2cc(c3O)Oc2ccc(cc2Cl)C1O (centres unmarked) [Desmethyl-desglucobalhimycin, desmethyl-desglucobalhimycin]	0.2	> 100	0.2	25	0.1	0.1		50	0.1	50	0.1	> 100	0.1	0.2	0.2	0.2
CC(C)CC(N)C(=O)NC1C(=O)NC(CC(N)=O)C(=O)NC2C(=O)NC3C(=O)NC(C(=O)NC(C(=O)O)c4cc(O)cc(O)c4-c4cc3ccc4O)C(OC3CC(C)(N)C(=O)C(C)O3)c3ccc(c(Cl)c3)Oc3cc2cc(c3OC2OC(CO)C(O)C(O)C2O)Oc2ccc(cc2Cl)C1O (centres unmarked) [Desmethylbalhimycin, desmethylbalhimycin]	0.1	50	0.8	25	0.05	0.05	50	50	0.4	100	0.05	10	0.2	0.2	0.1	25
